Data: ChEMBL document CHEMBL3992552, “Mechanisms of action and structure-activity relationships of cytotoxic flavokawain derivatives” (Bioorg Med Chem, 2017)
Active and inactive are the calls of the source. No cut-off for these calls is given here.

Legend:
[1] = test system: Huh-7; assay: Cytotoxicity against human HuH7 cells assessed as cell survival at 50 uM after 48 hrs by Hoechst 33342 staining based assay relative to control; assay type: functional; conditions: Huh-7, 48 h, read-out: Survival
[2] = test system: Caco-2; assay: Cytotoxicity against human Caco2 cells assessed as cell survival at 50 uM after 48 hrs by Hoechst 33342 staining based assay relative to control; assay type: functional; conditions: Caco-2, 48 h, read-out: Survival
[3] = test system: MDA-MB-231; assay: Cytotoxicity against human MDA-MB-231 cells assessed as cell survival at 50 uM after 48 hrs by Hoechst 33342 staining based assay relative to control; assay type: functional; conditions: MDA-MB-231, 48 h, read-out: Survival
[4] = test system: HCT-116; assay: Cytotoxicity against human HCT116 cells assessed as cell survival at 50 uM after 48 hrs by Hoechst 33342 staining based assay relative to control; assay type: functional; conditions: HCT-116, 48 h, read-out: Survival
[5] = test system: PC-3; assay: Cytotoxicity against human PC3 cells assessed as cell survival at 50 uM after 48 hrs by Hoechst 33342 staining based assay relative to control; assay type: functional; conditions: PC-3, 48 h, read-out: Survival
[6] = test system: NCI-H727; assay: Cytotoxicity against human NCI-H727 cells assessed as cell survival at 50 uM after 48 hrs by Hoechst 33342 staining based assay relative to control; assay type: functional; conditions: NCI-H727, 48 h, read-out: Survival
[7] = test system: HaCaT; assay: Cytotoxicity against human HaCaT cells assessed as cell survival at 50 uM after 48 hrs by Hoechst 33342 staining based assay relative to control; assay type: functional; conditions: read-out: Survival
[8] = Cytotoxicity against human fibroblasts assessed as cell survival at 50 uM after 48 hrs by Hoechst 33342 staining based assay relative to control; set-up: species or system Fibroblast; conditions: read-out: Survival
[9] = test system: HCT-116; assay: Induction of apoptosis in human HCT116 cells harboring wild-type p53 assessed as increase in early apoptosis at 2 times IC50 after 48 hrs by YoPro/propidium iodide/Hoechst staining based assay; assay type: functional, cell-based
[10] = test system: HCT-116; assay: Induction of apoptosis in human HCT116 cells harboring wild-type p53 assessed as increase in late apoptosis at 2 times IC50 after 48 hrs by YoPro/propidium iodide/Hoechst staining based assay; assay type: functional, cell-based
[11] = test system: PC-3; assay: Induction of apoptosis in human PC3 cells harboring p53 mutant assessed as increase in early apoptosis at 2 times IC50 after 48 hrs by YoPro/propidium iodide/Hoechst staining based assay; assay type: functional, cell-based
[12] = test system: PC-3; assay: Induction of apoptosis in human PC3 cells harboring p53 mutant assessed as increase in late apoptosis at 2 times IC50 after 48 hrs by YoPro/propidium iodide/Hoechst staining based assay; assay type: functional, cell-based
[13] = test system: MDA-MB-231; assay: Induction of apoptosis in human MDA-MB-231 cells harboring p53 mutant assessed as increase in early apoptosis at 2 times IC50 after 24 hrs by YoPro/propidium iodide/Hoechst staining based assay; assay type: functional, cell-based
[14] = test system: MDA-MB-231; assay: Induction of apoptosis in human MDA-MB-231 cells harboring p53 mutant assessed as increase in late apoptosis at 2 times IC50 after 24 hrs by YoPro/propidium iodide/Hoechst staining based assay; assay type: functional, cell-based
[15] = test system: MCF7; assay: Induction of apoptosis in human MCF7 cells harboring wild-type p53 assessed as increase in early apoptosis at 2 times IC50 after 24 hrs by YoPro/propidium iodide/Hoechst staining based assay; assay type: functional, cell-based
[16] = test system: MCF7; assay: Induction of apoptosis in human MCF7 cells harboring wild-type p53 assessed as increase in late apoptosis at 2 times IC50 after 24 hrs by YoPro/propidium iodide/Hoechst staining based assay; assay type: functional, cell-based
[17] = test system: HCT-116; assay: Induction of apoptosis in human HCT116 cells harboring wild-type p53 assessed as increase in cleaved caspase3 at 2 times IC50 after 48 hrs by Hoechst staining based assay; assay type: functional, cell-based
[18] = test system: PC-3; assay: Induction of apoptosis in human PC3 cells harboring p53 mutant assessed as increase in cleaved caspase3 at 2 times IC50 after 48 hrs by Hoechst staining based assay; assay type: functional, cell-based
[19] = test system: MDA-MB-231; assay: Induction of apoptosis in human MDA-MB-231 cells harboring p53 mutant assessed as increase in cleaved caspase3 at 2 times IC50 after 24 hrs by Hoechst staining based assay; assay type: functional, cell-based
[20] = test system: HCT-116; assay: Induction of apoptosis in human HCT116 cells harboring wild-type p53 assessed as upregulation of p21 measured after 48 hrs by Hoechst staining based fluorescence assay; assay type: functional, cell-based
[21] = test system: MCF7; assay: Induction of apoptosis in human MCF7 cells harboring wild-type p53 assessed as upregulation of p21 measured after 48 hrs by Hoechst staining based fluorescence assay; assay type: functional, cell-based
[22] = test system: HCT-116; assay: Induction of apoptosis in human HCT116 cells harboring wild-type p53 assessed as upregulation of cyclinB1 measured after 48 hrs by Hoechst staining based assay; assay type: functional, cell-based
[23] = test system: MCF7; assay: Induction of apoptosis in human MCF7 cells harboring wild-type p53 assessed as upregulation of cyclinB1 measured after 18 hrs by Hoechst staining based assay; assay type: functional, cell-based
[24] = test system: PC-3; assay: Induction of apoptosis in human PC3 cells harboring p53 mutant assessed as upregulation of cyclinB1 after 48 hrs by Hoechst staining based assay; assay type: functional, cell-based
[25] = test system: MDA-MB-231; assay: Induction of apoptosis in human MDA-MB-231 cells harboring p53 mutant assessed as upregulation of cyclinB1 after 18 hrs by Hoechst staining based assay; assay type: functional, cell-based
[26] = test system: Huh-7; assay: Cytotoxicity against human HuH7 cells assessed as cell viability after 48 hrs by Hoechst 33342 staining based assay; assay type: functional; conditions: Huh-7, 48 h
[27] = test system: Caco-2; assay: Cytotoxicity against human Caco2 cells assessed as cell viability after 48 hrs by Hoechst 33342 staining based assay; assay type: functional; conditions: Caco-2, 48 h
[28] = test system: MDA-MB-231; assay: Cytotoxicity against human MDA-MB-231 cells assessed as cell viability after 48 hrs by Hoechst 33342 staining based assay; assay type: functional; conditions: MDA-MB-231, 48 h
[29] = test system: HCT-116; assay: Cytotoxicity against human HCT116 cells assessed as cell viability after 48 hrs by Hoechst 33342 staining based assay; assay type: functional; conditions: HCT-116, 48 h
[30] = test system: PC-3; assay: Cytotoxicity against human PC3 cells assessed as cell viability after 48 hrs by Hoechst 33342 staining based assay; assay type: functional; conditions: PC-3, 48 h
[31] = test system: NCI-H727; assay: Cytotoxicity against human NCI-H727 cells assessed as cell viability after 48 hrs by Hoechst 33342 staining based assay; assay type: functional; conditions: NCI-H727, 48 h
[32] = test system: HaCaT; assay: Cytotoxicity against human HaCaT cells assessed as cell viability after 48 hrs by Hoechst 33342 staining based assay; assay type: functional
[33] = test system: Fibroblast; assay: Cytotoxicity against human fibroblasts assessed as cell viability after 48 hrs by Hoechst 33342 staining based assay
[34] = test system: RL; assay: Cytotoxicity against human RL assessed as cell viability after 48 hrs by Hoechst 33342 staining based assay; assay type: functional
[35] = test system: MCF7; assay: Cytotoxicity against human MCF7 assessed as cell viability after 48 hrs by Hoechst 33342 staining based assay; assay type: functional; conditions: MCF7, 48 h
[36] = Selectivity index, ratio of IC50 for human fibroblasts to IC50 for human HuH7 cells
[37] = Selectivity index, ratio of IC50 for human fibroblasts to IC50 for human Caco2 cells
[38] = Selectivity index, ratio of IC50 for human fibroblasts to IC50 for human MDA-MB-231 cells
[39] = Selectivity index, ratio of IC50 for human fibroblasts to IC50 for human HCT116 cells
[40] = Selectivity index, ratio of IC50 for human fibroblasts to IC50 for human PC3 cells
[41] = Selectivity index, ratio of IC50 for human fibroblasts to IC50 for human NCI-H727 cells
[42] = Selectivity index, ratio of IC50 for human fibroblasts to IC50 for human HaCaT cells
[43] = Selectivity index, ratio of IC50 for human fibroblasts to IC50 for human RL cells
[44] = Selectivity index, ratio of IC50 for human fibroblasts to IC50 for human MCF7 cells

Structure (SMILES)	viability at 50 µM [1] [%]	viability at 50 µM [2] [%]	viability at 50 µM [3] [%]	viability at 50 µM [4] [%]	viability at 50 µM [5] [%]	viability at 50 µM [6] [%]	viability at 50 µM [7] [%]	viability at 48 h, 50 µM [8] [%]	further results
COc1cc(O)c(C(=O)/C=C/c2ccc(Br)cc2)c(OC)c1	> 80	> 80	> 80	> 80	58	72	66	> 80	Activity [9]: inactive; Activity [10]: inactive; Activity [11]: inactive; Activity [12]: inactive; Activity [13]: inactive; Activity [14]: inactive; Activity [15]: inactive; Activity [16]: inactive; Activity [17]: inactive; Activity [18]: inactive; Activity [19]: inactive; Activity [20]: inactive; Activity [21]: inactive; Activity [22]: inactive; Activity [23]: inactive; Activity [24]: inactive; Activity [25]: inactive
COc1cc(O)c(C(=O)/C=C/c2ccc(Cl)cc2)c(OC)c1	> 80	> 80	> 80	> 80	> 80	> 80	> 80	> 80	
COc1ccc(/C=C/C(=O)c2c(O)cc(OC)cc2OC)cc1 [FLAVOKAWAIN A]	50	32	58	20	43	40	35	67	
COc1cc(O)c(C(=O)/C=C/c2ccc(C(=O)O)cc2)c(OC)c1	> 80	> 80	> 80	> 80	> 80	> 80	> 80	> 80	
COc1cc(OC)c(C(=O)/C=C/c2ccc(C(=O)O)cc2)c(OC)c1	38	25	68	7	39	23	59	57	
COc1cc(OC)c(C(=O)/C=C/c2ccccc2OC)c(OC)c1	6	5	11	0	32	1	23	77	IC50 [26]: 9.8 µM; IC50 [27]: 4.5 µM; IC50 [28]: 13 µM; IC50 [29]: 4.2 µM; IC50 [30]: 8.1 µM; IC50 [31]: 4 µM; IC50 [32]: 8.7 µM; IC50 [33]: 8.2 µM; IC50 [34]: 9 µM; IC50 [35]: 8.9 µM; Ratio IC50 [36]: 0.8; Ratio IC50 [37]: 1.8; Ratio IC50 [38]: 0.6; Ratio IC50 [39]: 2; Ratio IC50 [40]: 1; Ratio IC50 [41]: 2.1; Ratio IC50 [42]: 0.9; Ratio IC50 [43]: 0.9; Ratio IC50 [44]: 0.9
COc1cc(OC)c(C(=O)/C=C/c2ccc(O)cc2)c(OC)c1	45	24	32	17	33	42	16	65	
COc1cc(O)c(C(=O)/C=C/c2ccc(N(C)C)cc2)c(OC)c1	> 80	> 80	> 80	> 80	> 80	> 80	> 80	> 80	
